Source: PubChem BioAssay AID330 (DTP/NCI, 2004)
Several values for one entry are separate records, joined by “and”; a condition that tells them apart may be missing. Equal values may be shown once. Inconclusive results and toxic doses are left out.

Test system: P388 leukemia ip, CD2F1 mice, survival T/C
Assay: NCI In Vivo Anticancer Drug Screen. Data for tumor model P388 Leukemia (intraperitoneal) in CD2F1 (CDF1) mice
Conditions: endpoint: median survival time, higher = longer survival
Summary of the method: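 Mice carrying the transplanted tumor received test compound or vehicle. Survival was recorded in each group, and the value is the treated-group measurement divided by that of the vehicle-treated control group.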

[1] = dose: 50.0 mg/kg/injection, schedule: Q01DX005 (ip), vehicle: saline
[2] = dose: 100.0 mg/kg/injection, schedule: Q01DX005 (ip), vehicle: saline
[3] = dose: 200.0 mg/kg/injection, schedule: Q01DX005 (ip), vehicle: saline
[4] = dose: 50.0 mg/kg/injection, schedule: Q01DX005 (ip), vehicle: saline with Tween-80
[5] = dose: 100.0 mg/kg/injection, schedule: Q01DX005 (ip), vehicle: saline with Tween-80
[6] = dose: 200.0 mg/kg/injection, schedule: Q01DX005 (ip), vehicle: saline with Tween-80
[7] = dose: 60.0 mg/kg/injection, schedule: Q01DX005 (ip), vehicle: Klucel (hydroxypropylcellulose) (HPC)
[8] = dose: 120.0 mg/kg/injection, schedule: Q01DX005 (ip), vehicle: Klucel (hydroxypropylcellulose) (HPC)
[9] = dose: 240.0 mg/kg/injection, schedule: Q01DX005 (ip), vehicle: Klucel (hydroxypropylcellulose) (HPC)
[10] = dose: 100.0 mg/kg/injection, schedule: Q01DX009 (ip), vehicle: saline with Tween-80
[11] = dose: 200.0 mg/kg/injection, schedule: Q01DX009 (ip), vehicle: saline with Tween-80
[12] = dose: 400.0 mg/kg/injection, schedule: Q01DX009 (ip), vehicle: saline with Tween-80
[13] = dose: 50.0 mg/kg/injection, schedule: Q01DX009 (ip), vehicle: suspension in saline
[14] = dose: 100.0 mg/kg/injection, schedule: Q01DX009 (ip), vehicle: suspension in saline
[15] = dose: 60.0 mg/kg/injection, schedule: Q01DX005 (ip), vehicle: saline with Tween-80
[16] = dose: 120.0 mg/kg/injection, schedule: Q01DX005 (ip), vehicle: saline with Tween-80
[17] = dose: 240.0 mg/kg/injection, schedule: Q01DX005 (ip), vehicle: saline with Tween-80
[18] = dose: 100.0 mg/kg/injection, schedule: Q04DX003 (ip), vehicle: Klucel (hydroxypropylcellulose) (HPC)

O=C1CNCC(=O)N1
T/C [1]: 110 % of control | T/C [2]: 99 % of control | T/C [3]: 100 % of control

CC1=CC(=N/Br)/C=CC/1=N/Br
T/C [4]: 108 % of control | T/C [5]: 100 % of control | T/C [6]: 99 % of control

COc1cc(CC2c3cc(OC)c(OC)cc3CC[N+]2(C)C)c(Oc2cc(CC3c4cc(OC)c(OC)cc4CC[N+]3(C)C)ccc2OC)cc1OC (stereo unspecified)
T/C (dose: 1.56 mg/kg/injection, schedule: Q04DX003 (ip), vehicle: water): 109 % of control | T/C (dose: 3.13 mg/kg/injection, schedule: Q04DX003 (ip), vehicle: water): 103 % of control

Cc1cc(=O)oc2c(-c3ccccc3)nnc(Cl)c12
T/C [7]: 98 % of control | T/C [8]: 96 % of control | T/C [9]: 95 % of control

CCCCCCCCCCCn1nnnc1N
T/C [4]: 102 % of control | T/C [5]: 93 % of control | T/C [6]: 96 % of control

N#CC(C#N)=C1CCNc2ccccc21
T/C [10]: 95 % of control | T/C [11]: 95 % of control | T/C [12]: 95 % of control

NC(=O)c1c[se]c(C2OC(CO)C(O)C2O)n1 (stereo unspecified)
T/C (dose: 25.0 mg/kg/injection, schedule: Q01DX005 (ip), vehicle: saline): 154 % of control

CCCCCCOC(CN(C)C)C(Cl)(Cl)Cl (stereo unspecified)
T/C [13]: 97 % of control | T/C [14]: 96 % of control | T/C (dose: 400.0 mg/kg/injection, schedule: Q01DX009 (ip), vehicle: suspension in saline): 124 % of control

CN1CCC(c2ccccc2)C(O)C1 (stereo unspecified)
T/C [15]: 106 % of control | T/C [16]: 105 % of control | T/C [17]: 103 % of control

COc1ccc(C2C3=C(CCCC3=O)Oc3cc4c(cc32)OCO4)c(OC)c1 (stereo unspecified)
T/C [15]: 99 % of control | T/C [16]: 90 % of control | T/C [17]: 90 % of control

CC(O)C(=O)NCCO (stereo unspecified)
T/C [1]: 99 % of control | T/C [2]: 93 % of control | T/C [3]: 100 % of control

CNC(=S)NNc1nnc(NNC(=S)NC)c2ccccc12
T/C (dose: 50.0 mg/kg/injection, schedule: Q01DX009 (ip), vehicle: saline): 94 % of control | T/C (dose: 100.0 mg/kg/injection, schedule: Q01DX009 (ip), vehicle: saline): 97 % of control | T/C (dose: 200.0 mg/kg/injection, schedule: Q01DX009 (ip), vehicle: saline): 102 % of control

O=C(O)CSCC(=O)Nc1cc(C(F)(F)F)cc(C(F)(F)F)c1
T/C [7]: 95 % of control | T/C [8]: 98 % of control | T/C [9]: 113 % of control

COC(=O)c1ccccc1NC(=O)N1CC1
T/C (dose: 50.0 mg/kg/injection, schedule: Q01DX005 (ip), vehicle: DMSO): 105 % of control | T/C (dose: 100.0 mg/kg/injection, schedule: Q01DX005 (ip), vehicle: DMSO): 118 % of control

ClC1=C(Cl)C(Cl)=C(Cl)C1=C/C=C/c1ccccc1
T/C (dose: 25.0 mg/kg/injection, schedule: Q01DX009 (ip), vehicle: saline with Tween-80): 99 % of control | T/C (dose: 50.0 mg/kg/injection, schedule: Q01DX009 (ip), vehicle: saline with Tween-80): 100 % of control | T/C [10]: 91 % of control

c1ccc(SNSc2ccccc2)cc1
T/C [18]: 103 % of control | T/C (dose: 200.0 mg/kg/injection, schedule: Q04DX003 (ip), vehicle: Klucel (hydroxypropylcellulose) (HPC)): 101 % of control | T/C (dose: 400.0 mg/kg/injection, schedule: Q04DX003 (ip), vehicle: Klucel (hydroxypropylcellulose) (HPC)): 106 % of control

COC(=O)c1ccc(O)c(O)c1
T/C [10]: 104 % of control | T/C [11]: 100 % of control | T/C [12]: 100 % of control

Cc1cc[n+](C2=C(Nc3cc(C)cc(C)c3)C(=O)c3ccccc3C2=O)cc1
T/C [4]: 111 % of control | T/C [5]: 119 % of control | T/C [6]: 90 % of control

CC(=O)c1cc2c(cc1C(C)C)CC[C@H]1[C@](C)(C#N)CCC[C@]21C
T/C (dose: 50.0 mg/kg/injection, schedule: Q01DX009 (ip), vehicle: saline sonified): 86 % of control | T/C (dose: 100.0 mg/kg/injection, schedule: Q01DX009 (ip), vehicle: saline sonified): 90 % of control

Cc1ccnc2n[nH]nc12
T/C (dose: 100.0 mg/kg/injection, schedule: Q04DX002 (ip), vehicle: water): 109 % of control | T/C (dose: 200.0 mg/kg/injection, schedule: Q04DX002 (ip), vehicle: water): 107 % of control | T/C (dose: 400.0 mg/kg/injection, schedule: Q04DX002 (ip), vehicle: water): 103 % of control

O=C1CCC2C(C3SCCCS3)=CCN12 (stereo unspecified)
T/C [15]: 97 % of control | T/C [16]: 95 % of control | T/C [17]: 101 % of control

CNC(=O)Oc1ccc2c(c1)[C@]1(C)CCN(C)O[C@@H]1N2C
T/C (dose: 0.79 mg/kg/injection, schedule: Q01DX005 (ip), vehicle: Klucel (hydroxypropylcellulose) (HPC)): 100 % of control | T/C (dose: 1.56 mg/kg/injection, schedule: Q01DX005 (ip), vehicle: Klucel (hydroxypropylcellulose) (HPC)): 100 % of control

CCN(CC)CC(COC)Oc1cc(C)ccc1C(C)C (stereo unspecified)
T/C (dose: 50.0 mg/kg/injection, schedule: Q04DX003 (ip), vehicle: saline with Tween-80): 104 % of control | T/C (dose: 100.0 mg/kg/injection, schedule: Q04DX003 (ip), vehicle: saline with Tween-80): 95 % of control | T/C (dose: 200.0 mg/kg/injection, schedule: Q04DX003 (ip), vehicle: saline with Tween-80): 109 % of control

BrC1=CC(Br)=C2N=C(N3CCCC3)N=C3N=C(N4CCCC4)N=C1N32
T/C (dose: 3.75 mg/kg/injection, schedule: Q01DX005 (ip), vehicle: Klucel + Tween-80): 97 % of control | T/C (dose: 7.5 mg/kg/injection, schedule: Q01DX005 (ip), vehicle: Klucel + Tween-80): 97 % of control | T/C (dose: 15.0 mg/kg/injection, schedule: Q01DX005 (ip), vehicle: Klucel + Tween-80): 89 % of control and 90 % of control | T/C (dose: 60.0 mg/kg/injection, schedule: Q01DX005 (ip), vehicle: Klucel + Tween-80): 86 % of control

CN(C)CCC(c1ccccc1)C(CO)c1ccccc1 (stereo unspecified)
T/C (dose: 100.0 mg/kg/injection, schedule: Q01DX001 (ip), vehicle: Klucel (hydroxypropylcellulose) (HPC)): 116 % of control | T/C (dose: 200.0 mg/kg/injection, schedule: Q01DX001 (ip), vehicle: Klucel (hydroxypropylcellulose) (HPC)): 102 % of control

O=C(CCl)C(c1ccc([N+](=O)[O-])cc1)c1ccc([N+](=O)[O-])cc1
T/C [10]: 100 % of control | T/C [11]: 95 % of control | T/C [12]: 118 % of control

Clc1ccc(S[As](Sc2ccc(Cl)cc2)Sc2ccc(Cl)cc2)cc1
T/C (dose: 100.0 mg/kg/injection, schedule: Q04DX002 (ip), vehicle: Klucel (hydroxypropylcellulose) (HPC)): 121 % of control | T/C (dose: 200.0 mg/kg/injection, schedule: Q04DX002 (ip), vehicle: Klucel (hydroxypropylcellulose) (HPC)): 114 % of control | T/C (dose: 400.0 mg/kg/injection, schedule: Q04DX002 (ip), vehicle: Klucel (hydroxypropylcellulose) (HPC)): 113 % of control

C/C=C(\C)c1cc(OC)c(C)c(=O)o1
T/C (dose: 25.0 mg/kg/injection, schedule: Q04DX003 (ip), vehicle: Klucel (hydroxypropylcellulose) (HPC)): 118 % of control | T/C (dose: 50.0 mg/kg/injection, schedule: Q04DX003 (ip), vehicle: Klucel (hydroxypropylcellulose) (HPC)): 116 % of control | T/C [18]: 114 % of control

COc1ccc(/C=C/C(=O)c2cc(C(=O)O)c(OC)cc2OC)cc1OC
T/C [13]: 117 % of control and 120 % of control | T/C [14]: 123 % of control

O=C1c2ccccc2-c2c1c1ccccc1c(=O)n2-c1cccnc1
T/C [4]: 111 % of control | T/C [5]: 101 % of control | T/C [6]: 97 % of control

CC(C)C(=O)N[C@H]1C[C@H]2CCC1(C)C2(C)C
T/C (dose: 50.0 mg/kg/injection, schedule: Q01DX005 (ip), vehicle: Klucel (hydroxypropylcellulose) (HPC)): 103 % of control and 93 % of control | T/C (dose: 100.0 mg/kg/injection, schedule: Q01DX005 (ip), vehicle: Klucel (hydroxypropylcellulose) (HPC)): 107 % of control and 96 % of control | T/C (dose: 200.0 mg/kg/injection, schedule: Q01DX005 (ip), vehicle: Klucel (hydroxypropylcellulose) (HPC)): 111 % of control and 95 % of control
